# From patent US12583870B2, “Azaheteroaryl compound and application thereof” (SHANGHAI BLUERAY BIOPHARMA CO., LTD., priority 2019, dated 2026)
# Key:
# [1] = target: T1, EED protein (His6-tagged full-length) binding to H3K27me3 polypeptide (Homo sapiens, UniProt O75530); assay: AlphaScreen evaluation of blocking the binding of EED to H3K27Me3; settings: EED 60 nM, biotinylated H3K27me3 75 nM, 30 minutes incubation
# T1 construct: His6-tagged full-length EED protein (441 amino acids)
# Protocol: Firstly, compound solutions of different concentration gradients were prepared. Compound powder was dissolved in DMSO to prepare a mother liquor. 1.5 μl of the mother liquor of the compound was taken and added into 198.5 μl of a reaction buffer (25 mM HEPES (pH 8.0), 50 mM NaCl, 0.015% Tween 20, 0.5% BSA). The mixture was mixed uniformly. Then a 3-fold series dilution was carried out with the above-mentioned buffer containing 0.75% DMSO. 9 different test concentrations were provided for one same compound. 5 μL of compounds of different concentration gradients were taken and added into the ProxiPlate-384 Plus, White detection plate (PerkinElmer, 6008280) and two replicates in parallel were provided for each concentration gradient.
# Secondly, a reaction for blocking the binding was carried out. The above-mentioned buffer was used to dilute His6-tagged full-length EED protein (441 amino acids) to 60 nM and biotinylated polypeptide fragment H3K27me3 (amino acids at positions 19-33) (Biotinylated-H3K27me3) to 75 nM. 5 μl of the polypeptide fragment at the concentration of 75 nM and 5 µl of the protein at the concentration of 60 nM were transferred to the detection wells containing the compound, respectively. The detection plate was sealed with the film and incubation was carried out at room temperature for 30 minutes.
# Finally, the detection was carried out with the AlphaScreen method. Prior use, nickel chelate receptor beads and streptavidin donor beads (at the ratio of 1:1, Perkin Elmer, product number 6760619M) were mixed with the above-mentioned reaction buffer. Then 5 μl of the above-mentioned pre-mixed detection solution was added to each of the detection wells. The donor beads and receptor beads were both at a final concentration of 5 μg/mL. The detection plate was covered and sealed with tinfoil and placed in the dark at room temperature for 1 hour. The signal was read using the AlphaScreen detector on the Spectra max i3. AlphaScreen signals were standardlized based on the readings obtained from positive controls (maximum signal controls) and negative controls (minimum signal controls) to give the inhibition rates for compounds at different concentrations, and afterwards non-linear regression analysis was carried out using GraphPad Prism 5, inhibition curves were made based on the Dose-Response equation of Y=Bottom+(Top−Bottom)/(1+10^((Log IC50−X)*HillSlope)) and the IC50 values of each compound were obtained. […]
# [2] = system: trimethylation level of histone H3K27 in G401 cells; assay: ELISA (H3K27 trimethylation) analysis in G401 cells; assay type: cell-based; settings: Homo sapiens, G-401, 72 hours, H3K27me3 standardized to H3
# In short: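 Cells exposed 72 h to 10-point 3-fold dilutions, top 10 μM, 0.5% final DMSO. Acid-extracted histones assayed by ELISA (ECL) for H3K27me3, normalized to total H3 and to DMSO control; IC50 from dose-response fit.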
# [3] = system: KARPAS-422 cells; assay: Cell proliferation analysis, KARPAS-422, 13 days, CellTiter-Glo; assay type: cell-based; settings: Homo sapiens, 312 h
# In short: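 KARPAS-422 cells were treated with PRC2 inhibitors over 9 three-fold dilutions from 10 μM top (0.5% DMSO, duplicates) in RPMI-1640 with 15% FBS at 37 °C. Every 3–4 days cells were counted and reseeded at 1×10^4/well with fresh compound. Viability was read by CellTiter-Glo luminescence on day 13.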
# T1 sequence (O75530 whole entry): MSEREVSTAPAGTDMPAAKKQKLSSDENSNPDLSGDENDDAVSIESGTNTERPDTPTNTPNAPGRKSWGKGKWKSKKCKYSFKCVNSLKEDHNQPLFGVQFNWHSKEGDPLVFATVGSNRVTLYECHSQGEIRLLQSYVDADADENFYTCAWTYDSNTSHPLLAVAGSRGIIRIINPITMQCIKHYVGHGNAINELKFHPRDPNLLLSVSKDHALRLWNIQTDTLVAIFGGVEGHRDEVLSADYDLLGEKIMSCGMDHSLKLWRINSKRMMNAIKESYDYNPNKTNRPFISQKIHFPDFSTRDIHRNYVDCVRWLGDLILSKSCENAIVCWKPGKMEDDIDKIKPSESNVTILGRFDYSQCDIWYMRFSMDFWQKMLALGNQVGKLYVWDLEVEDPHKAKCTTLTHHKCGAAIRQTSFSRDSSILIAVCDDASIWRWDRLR
SMILES,IC50 [1],IC50 [2],IC50 [3]
"CC1=Cc2cc(-c3cnc(NCc4c(F)ccc5c4[C@H]4C[C@H]4O5)n4cnnc34)ccc2S1(=O)=O [5-(5-((((1aR,6bR)-5-fluoro-1a,6b-dihydro-1H-cyclopropa[b]benzofuran-6-yl)methyl)amino)-[1,2,4]triazolo[4,3-c]pyrimidin-8-yl)-2-methylbenzo[b]thiophene 1,1-dioxide]",0.0049 µM,0.0041 µM,0.0125 µM
"COC(=O)Cc1cnc2c(-c3cnc(NCc4c(F)ccc5c4CCO5)n4cnnc34)ccc(C)n12 [Methyl 2-(8-(5-(((5-fluoro-2,3-dihydrobenzofuran-4-yl)methyl)amino)-[1,2,4]triazolo[4,3-c]pyrimidin-8-yl)-5-methylimidazo[1,2-a]pyridin-3-yl)acetate]",0.0062 µM,0.0038 µM,0.001 µM
"Fc1ccc2c(c1CNc1ncc(-c3ccc4nccn4c3)c3nncn13)CCO2 [N-((5-fluoro-2,3-dihydrobenzofuran-4-yl)methyl)-8-(imidazo[1,2-a]pyridin-6-yl)-[1,2,4]triazolo[4,3-c]pyrimidin-5-amine]",0.0424 µM,0.058 µM,0.0941 µM
"Fc1ccc2c(c1CNc1ncc(-c3ccn4ccnc4c3)c3nncn13)CCO2 [N-((5-fluoro-2,3-dihydrobenzofuran-4-yl)methyl)-8-(imidazo[1,2-a]pyridin-7-yl)-[1,2,4]triazolo[4,3-c]pyrimidin-5-amine]",0.015 µM,0.0056 µM,0.0165 µM
"Cc1cnc2c(-c3cnc(NCc4c(F)ccc5c4CCO5)n4cnnc34)cccn12 [N-((5-fluoro-2,3-dihydrobenzofuran-4-yl)methyl)-8-(3-methylimidazo[1,2-a]pyridin-8-yl)-[1,2,4]triazolo[4,3-c]pyrimidin-5-amine]",0.0046 µM,0.0016 µM,0.0014 µM
"Fc1ccc2c(c1CNc1ncc(-c3cccn4c(Cc5ccccc5)cnc34)c3nncn13)CCO2 [8-(3-phenylmethylimidazo[1,2-a]pyridin-8-yl)-N-((5-fluoro-2,3-dihydrobenzofuran-4-yl)methyl)-[1,2,4]triazolo[4,3-c]pyrimidin-5-amine]",0.0012 µM,0.0045 µM,0.0036 µM
"O=S1(=O)C=Cc2c(-c3cnc(NCc4c(F)ccc5c4[C@H]4C[C@H]4O5)n4cnnc34)cccc21 [4-(5-((((1aR,6bR)-5-fluoro-1a,6b-dihydro-1H-cyclopropa[b]benzofuran-6-yl)methyl)amino)-[1,2,4]triazolo[4,3-c]pyrimidin-8-yl)benzo[b]thiophene 1,1-dioxide]",0.0044 µM,0.0092 µM,0.0115 µM
"O=S1(=O)C=Cc2cc(-c3cnc(NCc4c(F)ccc5c4[C@@H]4C[C@@H]4O5)n4cnnc34)ccc21 [5-(5-((((1aS,6bS)-5-fluoro-1a,6b-dihydro-1H-cyclopropa[b]benzofuran-6-yl)methyl)amino)-[1,2,4]triazolo[4,3-c]pyrimidin-8-yl)benzo[b]thiophene 1,1-dioxide]",0.015 µM,0.016 µM,0.0038 µM
"CC1=Cc2c(-c3cnc(NCc4c(F)ccc5c4CCO5)n4cnnc34)cccc2S1(=O)=O [4-(5-(((5-fluoro-2,3-dihydrobenzofuran-4-yl)methyl)amino)-[1,2,4]triazolo[4,3-c]pyrimidin-8-yl)-2-methylbenzo[b]thiophene 1,1-dioxide]",0.0122 µM,0.0036 µM,0.0042 µM
"Fc1ccc2c(c1CNc1ncc(-c3cccc4ncoc34)c3nncn13)CCO2 [8-(benzo[d]oxazol-7-yl)-N-((5-fluoro-2,3-dihydrobenzofuran-4-yl)methyl)-[1,2,4]triazolo[4,3-c]pyrimidin-5-amine]",0.0049 µM,0.013 µM,0.0136 µM
"Cn1cnc2c(-c3cnc(NCc4c(F)ccc5c4CCO5)n4cnnc34)cccc21 [N-((5-fluoro-2,3-dihydrobenzofuran-4-yl)methyl)-8-(1-methyl-1H-benzo[d]imidazol-4-yl)-[1,2,4]triazolo[4,3-c]pyrimidin-5-amine]",0.0086 µM,0.0013 µM,0.0016 µM
